System: brain tumors
Test: Size change in brain tumor and survival rate in rats having brain tumors
Assay type: in vivo
Conditions: (a) drug injected by intravenous injection, rats (FIGS. 27, 28)
Description: FIGS. 27 to 29 show the result of comparing the size change in brain tumor and the survival rate according to four treatment methods applied to rats having brain tumors.

COc1cccc2c1C(=O)c1c(O)c3c(c(O)c1C2=O)C[C@@](O)(C(=O)CO)C[C@@H]3O[C@H]1C[C@H](N)[C@H](O)[C@H](C)O1 [drug, doxorubicin]
size change in brain tumor: rapidly increases with time
